Measurements taken from ChEMBL document CHEMBL5126515, “Progress of thrombus formation and research on the structure-activity relationship for antithrombotic drugs” (Eur J Med Chem, 2022).
Blank lines part the entries; values can stand above or below the molecule they belong to.

Assays:
[1] = Antiplatelet activity in platelet (unknown origin) assessed as inhibition of ADP-induced platelet aggregation relative to control; assay type: functional, cell-based
Platelet = test: Potency index ratio of IC50 for CCI-17810 to IC50 test compound against antiplatelet activity in platelet (unknown origin); assay type: functional
Plasma (Mus musculus) = test: Anticoagulant activity in mouse plasma assessed as prothrombin time
Rattus norvegicus [2] = species: Rattus norvegicus; test: Antiplatelet aggregration activity in arteriovenous bypass thrombosis rat model assessed as aggregation inhibition rate relative to control; assay type: functional
Plasma [3] = test: Anticoagulant activity in rabbit plasma assessed as prothrombin time; assay type: functional, Oryctolagus cuniculus
Plasma [4] = test: Antithrombotic activity in mouse plasma assessed as prothrombin time administered IV
Plasma [5] = test: Antithrombotic activity in mouse plasma assessed as clotting time administered IV
[6] = Antithrombotic activity in fresh platelet rich plasma; assay type: functional, cell-based
[7] = Antiplatelet activity in human platelet; assay type: functional, cell-based
Erythrocyte = test: Anticoagulant activity in human RBC assessed as decrease in epinephrine induced platelet aggregation by measuring increased clotting time relative to control; assay type: functional
Blood [8] = test: Antithrombotic activity in ferric chloride-treated carotid artery thrombosis Sprague-dawley rat blood assessed as clot weight at 10 mg/kg (RVB = 72.50 +/- 2 mg); assay type: functional
Blood [9] = test: Antithrombotic activity in photochemically induced arterial thrombosis Cynomolgus monkey blood assessed as decrease in occlusion time (reference value: 119 +/- 17.40 min); assay type: functional, Macaca fascicularis
Blood [10] = test: Antithrombotic activity in ferric chloride-treated carotid artery thrombosis Sprague-dawley rat blood assessed as clot weight at 50 mg/kg (RVB = 72.50 +/- 2 mg); assay type: functional
Plasma [11] = test: Antiplatelet aggregation activity in rabbit plasma incubated for 5 mins; assay type: functional, cell-free; details: Oryctolagus cuniculus
[12] = Antiplatelet aggregation activity in rabbit platelet assessed as reduction in ADP-induced platelet aggregation; assay type: functional, cell-based; details: Oryctolagus cuniculus
Plasma [13] = test: Antithrombotic activity in human plasma assessed as thrombin time; assay type: functional
Prothrombin = Prothrombin (Homo sapiens, UniProt P00734); test: Inhibition of thrombin in human plasma; assay type: cell-free
Plasma [14] = test: Anticoagulant activity in mouse plasma assessed inhibition of thrombin-induced platelet aggregation; assay type: functional, cell-free
Rattus norvegicus [15] = species: Rattus norvegicus; test: Antithrombotic activity in arteriovenous bypass thrombo-genesis rat model assessed as quality of thrombosis; assay type: functional
Plasma [16] = test: Antithrombotic activity in rat plasma; assay type: functional
Plasma [17] = test: Anticoagulant activity in rabbit plasma assessed as thrombin time; assay type: functional, Oryctolagus cuniculus
Plasma [18] = test: Anticoagulant activity in rabbit plasma assessed as activated partial thromboplastin time; assay type: functional, Oryctolagus cuniculus
Coagulation factor X = Coagulation factor X (Mus musculus, UniProt O88947); test: Inhibition of mouse FXa
Coagulation factor X, sequence (O88947 41-180 limits assumed): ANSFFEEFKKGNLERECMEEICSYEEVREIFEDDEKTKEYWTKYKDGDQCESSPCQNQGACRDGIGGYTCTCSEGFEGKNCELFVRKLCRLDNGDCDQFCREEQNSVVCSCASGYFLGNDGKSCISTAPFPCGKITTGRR
Coagulation factor X, sequence (O88947 232-481 limits assumed): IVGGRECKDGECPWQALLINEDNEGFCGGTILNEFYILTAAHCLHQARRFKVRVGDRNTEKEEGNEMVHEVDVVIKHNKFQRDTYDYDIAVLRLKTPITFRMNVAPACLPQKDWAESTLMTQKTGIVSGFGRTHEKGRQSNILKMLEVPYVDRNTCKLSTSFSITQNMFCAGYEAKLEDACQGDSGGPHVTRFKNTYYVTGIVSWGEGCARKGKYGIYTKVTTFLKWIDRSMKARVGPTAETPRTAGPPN

IC50 ([1]; platelet): 0.008 µM
Structure (SMILES): CCCN(CCC)CC(=O)N1CCN(c2ccc(C3=NNC(=O)CC3C)cc2)CC1 (stereo unspecified)
Ratio IC50 (Platelet): 60

Structure (SMILES): Cc1cc(=O)oc2cc(OCCOc3ccccc3C(=O)OCCOc3ccc4ccc(=O)oc4c3)ccc12
Time (Plasma (Mus musculus)): 13.1 s

Structure (SMILES): COc1cc(/C=C/C(=O)OCCOCCO[N+](=O)[O-])ccc1OC(=O)c1ccccc1OC(C)=O
inhibition (INH) (Rattus norvegicus [2]): 16%

Structure (SMILES): CC(=O)Nc1ccc(C(=O)Nc2cc(C(N)=O)ccc2NC(=O)c2ccc(-n3ccccc3=O)cc2)cc1Cl
Time (Plasma [3]): 10.2 s

Structure (SMILES): O=C(Nc1ccc2oc(=O)ccc2c1)c1ccc(-c2noc(CCl)n2)cc1
Time (Plasma [4]): 42.3 s | Time (Plasma [5]): 17.7 s

IC50 [6]: 0.4 µM
Structure (SMILES): O=C(O)CC1CCCCCCCCCNC(=O)OCOC(=O)C(Cc2ccccc2)NC1=O (stereo unspecified)

Structure (SMILES): O=C(OCCOc1ccc2ccc(=O)oc2c1)c1ccccc1OCCOc1ccc2ccc(=O)oc2c1
Time (Plasma (Mus musculus)): 10.88 s

IC50 [7]: 0.05 µM
Structure (SMILES): CC1CC(=O)NN=C1c1ccc(NC(=O)CN2CCCCC2)cc1 (stereo unspecified)

Structure (SMILES): COc1cc(C(=O)Nc2cc(C(N)=O)ccc2NC(=O)c2ccc(-n3ccccc3=O)cc2)ccc1O
Time (Plasma [3]): 8.8 s

Structure (SMILES): Cn1c(-c2ccc(Br)s2)nc2cc(-c3nnc(-c4cc(-c5cc(F)cc(F)c5)nc5ccccc45)o3)ccc21
inhibition (INH) (Erythrocyte): 93.4%

Structure (SMILES): O=C(COCC(=O)N1CCN(C(c2ccccc2)c2ccccc2)CC1)Nc1ccc(Cl)cc1C(=O)[O-].[Na+]
Activity (Blood [8]): 60.9 mg | Time (Blood [9]): 53.9 min | Activity (Blood [10]): 56.8 mg

Structure (SMILES): CN(C)C(=O)c1ccc(NC(=O)c2ccc(-n3ccccc3=O)cc2)c(NC(=O)c2ccc(Cl)c(Cl)c2)c1
Time (Plasma [3]): 9.5 s

IC50 (Plasma [11]): 8.94 µM
Structure (SMILES): CCN1C(=O)COc2cc(NC(=O)CCCl)ccc21

IC50 [12]: 1760 µM
Structure (SMILES): COc1cc(/C=C/C(=O)O)ccc1OCc1cccnc1

IC50 (Prothrombin): 114 µM
Structure (SMILES): CC1(C)[C@@H](OC(=O)c2ccccc2C(=O)O)CC[C@]2(C)[C@H]3C(=O)C=C4[C@@H]5C[C@@](C)(C(=O)O)CC[C@]5(C)CC[C@@]4(C)[C@]3(C)CC[C@@H]12
Time (Plasma [13]): 118.3 s

Structure (SMILES): CC(=O)Oc1ccccc1C(=O)Oc1ccc(/C=C/C(=O)OCCCCO[N+](=O)[O-])cc1
inhibition (INH) (Rattus norvegicus [2]): 43.9%

Structure (SMILES): COc1cc(/C=C/C(=O)OCCCCCCCCCOc2no[n+]([O-])c2S(=O)(=O)c2ccccc2)ccc1OC(=O)c1ccccc1OC(C)=O
inhibition (INH) (Rattus norvegicus [2]): 15.7%

IC50 (Plasma [14]): 0.47 µM
Structure (SMILES): CCOC(=O)CCN(C(=O)c1ccc2c(c1)nc1n2CCN(CC(=O)OCc2ccccc2)C1Cc1ccc(/C(N)=N/CC(=O)OCc2ccccc2)cc1)c1ccccc1 (stereo unspecified)

IC50 (Plasma [14]): 0.57 µM
Structure (SMILES): CCCCCOC(=O)C/N=C(\N)c1ccc(CC2c3nc4cc(C(=O)N(CCC(=O)OCC)c5ccccc5)ccc4n3CCN2CC(=O)OCCCCC)cc1 (stereo unspecified)

Structure (SMILES): COc1cc(/C=C/C(=O)O)ccc1OCCN(C)C
inhibition (INH) [1]: 83.1%

Structure (SMILES): COc1cc(/C=C/C(=O)O)ccc1OCCN1CCOCC1
inhibition (INH) [1]: 91.4%

Structure (SMILES): COc1ccc(-n2nc(C(N)=O)c3c2C(=O)N(c2ccc(N4CCCCC4=O)cc2)CC3)cc1 [APIXABAN]
Time (Plasma [3]): 10 s

Structure (SMILES): CC(=O)Oc1ccccc1C(=O)O [ASPIRIN]
inhibition (INH) (Rattus norvegicus [2]): 14.7% | Activity (Rattus norvegicus [15]): 10.5 mg

Structure (SMILES): N#Cc1ccc(S[C@@H]2SC[C@@H](O)[C@H](O)[C@H]2O)cc1 [BECIPARCIL]
ED50 (Plasma [16]): 25 mg/kg

IC50 (Plasma [14]): 0.6 µM
Structure (SMILES): Cn1c(CNc2ccc(C(=N)N)cc2)nc2cc(C(=O)N(CCC(=O)O)c3ccccn3)ccc21 [DABIGATRAN]

IC50 [12]: 19600 µM
Structure (SMILES): COc1cc(/C=C/C(=O)O)ccc1O [FERULATE]

IC50 [12]: 2850 µM
Structure (SMILES): O=C(O)/C=C/c1ccc(Cn2ccnc2)cc1 [OZAGREL]

Structure (SMILES): COc1cc(O)c2c(=O)c(O)c(-c3ccc(O)c(O)c3)oc2c1 [RHAMNETIN]
Time (Plasma [3]): 72.6 s | Time (Plasma [17]): 23 s | Time (Plasma [18]): 6.8 s

IC50 [7]: 0.36 µM
Structure (SMILES): O=C1CCC(c2ccc(Nc3ccncc3)cc2)=NN1 [SENAZODAN]

Structure (SMILES): CC(=O)CC(c1ccccc1)c1c(O)c2ccccc2oc1=O (stereo unspecified) [WARFARIN]
Time (Plasma [4]): 42.3 s | Time (Plasma [5]): 23.2 s | Time (Plasma (Mus musculus)): 7.97 s

IC50 (Coagulation factor X): 0.006 µM
Structure (SMILES): CC(=N)N1CCC(Oc2ccc(N(Cc3ccc4ccc(C(=N)N)cc4c3)S(=O)(=O)CC(=O)O)cc2)CC1 [YM-60828]
